Test results: ChEMBL document CHEMBL1144310, “Identification of agonists and antagonists of the human melanocortin-4 receptor from piperazinebenzylamines” (Bioorg Med Chem Lett, 2005)

Tests used:
[1] = molecular target: T1, Melanocortin receptor 4 (Homo sapiens, UniProt P32245); test: Binding affinity towards human melanocortin 4 receptor expressed in HEK 293 cells using [125I]NDP-MSH; assay type: cell-based, HEK293
[2] = tested on: HEK293; test: Agonist activity in stimulation of cAMP accumulation in HEK 293 cells; details: Homo sapiens
[3] = tested on: HEK293; test: Inhibition of alpha-MSH-stimulated cAMP production at 10 uM in HEK cell line; assay type: functional; details: Homo sapiens
[4] = molecular target: T1, Melanocortin receptor 4; test: Inhibitory concentration against Melanocortin 4 receptor
[5] = molecular target: Melanocortin receptor 3 (Homo sapiens, UniProt P41968); test: Binding affinity for human melanocortin 3 receptor
Melanocortin receptor 3, sequence (P41968 whole entry): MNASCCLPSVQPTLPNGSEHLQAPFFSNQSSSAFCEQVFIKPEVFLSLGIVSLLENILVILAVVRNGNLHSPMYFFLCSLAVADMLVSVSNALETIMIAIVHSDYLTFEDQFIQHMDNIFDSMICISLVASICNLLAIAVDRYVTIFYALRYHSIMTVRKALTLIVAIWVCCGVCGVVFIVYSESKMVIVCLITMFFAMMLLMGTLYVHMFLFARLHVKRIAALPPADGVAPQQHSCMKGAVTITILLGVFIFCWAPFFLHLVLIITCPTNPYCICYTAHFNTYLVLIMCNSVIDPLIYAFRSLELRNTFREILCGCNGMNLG

[6] = molecular target: Melanocortin receptor 5 (Homo sapiens, UniProt P33032); test: Binding affinity for human melanocortin 5 receptor
Melanocortin receptor 5, sequence (P33032 whole entry): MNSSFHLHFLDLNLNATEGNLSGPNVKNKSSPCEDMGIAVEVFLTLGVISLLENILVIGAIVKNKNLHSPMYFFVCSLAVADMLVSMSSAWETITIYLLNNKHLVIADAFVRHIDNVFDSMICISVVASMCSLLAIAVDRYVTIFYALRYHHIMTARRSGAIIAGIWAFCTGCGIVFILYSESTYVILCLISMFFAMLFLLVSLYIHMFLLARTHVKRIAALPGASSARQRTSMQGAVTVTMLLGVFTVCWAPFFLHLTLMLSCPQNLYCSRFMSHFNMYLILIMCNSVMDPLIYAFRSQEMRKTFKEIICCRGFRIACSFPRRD

T1 sequence (P32245 whole entry): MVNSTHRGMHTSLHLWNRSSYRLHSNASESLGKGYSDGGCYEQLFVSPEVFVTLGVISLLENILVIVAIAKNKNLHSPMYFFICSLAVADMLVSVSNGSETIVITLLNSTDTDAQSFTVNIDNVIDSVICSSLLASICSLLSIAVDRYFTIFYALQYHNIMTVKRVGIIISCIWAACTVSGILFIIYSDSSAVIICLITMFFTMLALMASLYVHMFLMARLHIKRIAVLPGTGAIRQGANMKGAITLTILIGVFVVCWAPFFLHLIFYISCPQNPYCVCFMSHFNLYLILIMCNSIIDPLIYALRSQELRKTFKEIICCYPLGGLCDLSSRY

SMILES | Ki [1] [nM] | EC50 [2] [nM] | other results
N[C@H]1CCCC[C@@H]1NCc1ccccc1N1CCN(C(=O)[C@@H](Cc2ccc(Cl)cc2)NC(=O)[C@H]2Cc3ccccc3CN2)CC1 | 89 | 390 | –
CC(NCCN1CCOCC1)c1ccccc1N1CCN(C(=O)[C@@H](Cc2ccc(Cl)cc2)NC(=O)[C@H]2Cc3ccccc3CN2)CC1 (some centres undefined) | 87 | 230 | –
CC(NC1CCCNC1)c1ccccc1N1CCN(C(=O)[C@@H](Cc2ccc(Cl)cc2)NC(=O)C(N)Cc2ccccn2)CC1 (some centres undefined) | 56 | 220 | –
O=C(N[C@H](Cc1ccc(Cl)cc1)C(=O)N1CCN(c2ccccc2CN2CCCNCC2)CC1)[C@H]1Cc2ccccc2CN1 | 78 | 210 | –
CC(NC1CCCNC1)c1ccccc1N1CCN(C(=O)[C@@H](Cc2ccc(Cl)cc2)NC(=O)C(N)Cc2cccnc2)CC1 (some centres undefined) | 49 | – | –
O=C(N[C@H](Cc1ccc(Cl)cc1)C(=O)N1CCN(c2ccccc2CNc2ccncc2)CC1)[C@H]1Cc2ccccc2CN1 | 36 | 350 | –
O=C(N[C@H](Cc1ccc(Cl)cc1)C(=O)N1CCN(c2ccccc2CNCCCn2ccnc2)CC1)[C@H]1Cc2ccccc2CN1 | 370 | 640 | –
CN(C)CCC(=O)N[C@H](Cc1ccc(Cl)cc1)C(=O)N1CCC(Cn2cncn2)(C2CCCCC2)CC1 | – | 40 | –
CC(NC1CCCNC1)c1ccccc1N1CCN(C(=O)[C@@H](Cc2ccc(Cl)cc2)NC(=O)C2(N)Cc3ccccc3C2)CC1 (some centres undefined) | 24 | 440 | –
CC(NC1CCCNC1)c1ccccc1N1CCN(C(=O)[C@@H](Cc2ccc(Cl)cc2)NC(=O)C(N)Cc2ccccc2)CC1 (some centres undefined) | 52 | 400 | –
O=C(N[C@H](Cc1ccc(Cl)cc1)C(=O)N1CCN(c2ccccc2CNCCc2cccs2)CC1)[C@H]1Cc2ccccc2CN1 | – | 360 | –
CC(NC1CCCNC1)c1ccccc1N1CCN(C(=O)[C@@H](Cc2ccc(Cl)cc2)NC(=O)[C@H]2Cc3ccccc3CN2)CC1 (some centres undefined) | – | 4.7 | –
CC(NC1CCCNC1)c1ccccc1N1CCN(C(=O)[C@@H](Cc2ccc(Cl)cc2)NC(=O)C2(N)CCc3ccccc3C2)CC1 (some centres undefined) | 10 | 330 | –

Second part, led by results:

Ki [1] [nM] | SMILES | EC50 [2] [nM] | other results
4.8 | CC(NC1CCCNC1)c1ccccc1N1CCN(C(=O)[C@@H](Cc2ccc(Cl)cc2)NC(=O)c2cnc3ccccc3c2)CC1 (some centres undefined) | – | inhibition at 10 µM [3]: 38%; IC50 [4]: 300 nM; Ki [5]: 630 nM; Ki [6]: 600 nM
140 | CCOC(=O)CN(C)Cc1ccccc1N1CCN(C(=O)[C@@H](Cc2ccc(Cl)cc2)NC(=O)[C@H]2Cc3ccccc3CN2)CC1 | 210 | –
6.3 | CC(NC1CCCNC1)c1ccccc1N1CCN(C(=O)[C@@H](Cc2ccc(Cl)cc2)NC(=O)CC2NCCc3ccccc32)CC1 (some centres undefined) | 31 | Ki [5]: 1900 nM
120 | O=C(N[C@H](Cc1ccc(Cl)cc1)C(=O)N1CCN(c2ccccc2CNCCN2CCOCC2)CC1)[C@H]1Cc2ccccc2CN1 | 570 | –
22 | CN(C)CCN(Cc1ccccc1)Cc1ccccc1N1CCN(C(=O)[C@@H](Cc2ccc(Cl)cc2)NC(=O)[C@H]2Cc3ccccc3CN2)CC1 | 550 | –
240 | CN1CCN(Cc2ccccc2N2CCN(C(=O)[C@@H](Cc3ccc(Cl)cc3)NC(=O)[C@H]3Cc4ccccc4CN3)CC2)CC1 | 720 | –
270 | O=C(N[C@H](Cc1ccc(Cl)cc1)C(=O)N1CCN(c2ccccc2CNCCCN2CCCC2=O)CC1)[C@H]1Cc2ccccc2CN1 | 360 | –
30 | CC(NC1CCCNC1)c1ccccc1N1CCN(C(=O)[C@@H](Cc2ccc(Cl)cc2)NC(=O)Cc2ccccc2)CC1 (some centres undefined) | – | –
34 | CC(NC1CCCNC1)c1ccccc1N1CCN(C(=O)[C@@H](Cc2ccc(Cl)cc2)NC(=O)C(N)c2ccccc2)CC1 (some centres undefined) | – | –
47 | CC(NC1CCCNC1)c1ccccc1N1CCN(C(=O)[C@@H](Cc2ccc(Cl)cc2)NC(=O)C2(N)CCc3ccccc32)CC1 (some centres undefined) | – | –
33 | CC(NC1CCCNC1)c1ccccc1N1CCN(C(=O)[C@@H](Cc2ccc(Cl)cc2)NC(=O)CCc2ccccc2)CC1 (some centres undefined) | – | –
41 | CC(C)COCCCNC(C)c1ccccc1N1CCN(C(=O)[C@@H](Cc2ccc(Cl)cc2)NC(=O)[C@H]2Cc3ccccc3CN2)CC1 (some centres undefined) | 560 | –
160 | O=C(N[C@H](Cc1ccc(Cl)cc1)C(=O)N1CCN(c2ccccc2CNCCCN2CCCCCC2)CC1)[C@H]1Cc2ccccc2CN1 | 570 | –
53 | O=C(N[C@H](Cc1ccc(Cl)cc1)C(=O)N1CCN(c2ccccc2CN2CCOCC2)CC1)[C@H]1Cc2ccccc2CN1 | 360 | –
110 | CC(C)COCCCNCc1ccccc1N1CCN(C(=O)[C@@H](Cc2ccc(Cl)cc2)NC(=O)[C@H]2Cc3ccccc3CN2)CC1 | 520 | –
120 | CC(NC1CCCNC1)c1ccccc1N1CCN(C(=O)[C@@H](Cc2ccc(Cl)cc2)NC(=O)C(N)C2CCc3ccccc32)CC1 (some centres undefined) | 630 | –
